From ChEMBL document CHEMBL1201862, “PubChem BioAssay data set” (2004)
The source made the active and inactive calls.

Legend:
[1] = target: Mitogen-activated protein kinase 10 (Homo sapiens, UniProt P53779); experiment: Dose response biochemical screening assay for inhibitors of c-Jun N-Terminal Kinase 3 (JNK3). [Related pubchem assays: 746 ]
[2] = target: Photoreceptor-specific nuclear receptor (Homo sapiens, UniProt Q9Y5X4); experiment: NR2E3 inverse agonists, dose response, biochemical, TR-FRET (AID 463256); format: functional
[3] = target: Peroxisome proliferator-activated receptor gamma/Nuclear receptor corepressor 2 (Homo sapiens, UniProt P37231+Q9Y618); experiment: Counterscreen for NR2E3 inverse agonists: TR-FRET-based biochemical high throughput dose response assay to identify inverse agonists of the interaction between peroxisome proliferator-activated receptor gamma (PPARg) and nuclear receptor co-repressor 2 (NCOR2).; format: functional
[4] = cytotoxicity toward Colo320 cells – cell-based, CellTiter-Glo luminescence, IC50, dose response (AID 1117334); format: functional; settings: COLO 320
[5] = HeLa 4N DNA content increase, dose response, cell-based, IC50 (AID 1117351); format: functional
[6] = HCT116 cell viability decrease, GSK3B pretreatment – CellTiter-Glo, IC50, dose response (AID 1117339); format: functional; settings: HCT-116
[7] = HeLa 2N DNA content increase, dose response, cell-based, IC50 (AID 1117349); format: functional
[8] = RKO cell viability reduction, dose response, CellTiter-Glo luminescence (AID 1117322); format: functional
[9] = cytotoxicity toward HCT116 cells – cell-based, CellTiter-Glo luminescence, IC50, dose response (AID 1117332); format: functional; settings: HCT-116
[10] = cytotoxicity toward HT-29 cells – cell-based, CellTiter-Glo luminescence, IC50, dose response (AID 1117330); format: functional
[11] = A Cell Based Secondary Assay To Explore Cytotoxicity of Compounds that Sensitize Mycobacterium Tuberculosis to Beta-Lactam Antibiotics.; format: functional
[12] = target: Lysosomal acid glucosylceramidase (Homo sapiens, UniProt P04062); experiment: Dose response cell-based high throughput screening assay to identify enhancers of beta-glucosidase activity. [Related pubchem assays: 784 ]; format: functional
[13] = target: Cytochrome P450 2D6 (Homo sapiens, UniProt P10635);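 further: CYP2D6 member of a cytochrome P450 panel assay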
[14] = cytotoxicity toward NIH3T3 fibroblasts, dose response, counter-screen, cell-based, ATP luminescence, mouse fibroblasts (AID 2010); format: functional;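 further: cells exposed to compound for about 90 hours before reading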
[15] = inhibitors of intracellular T. cruzi replication, confirmation, NIH3T3 host cells, beta-gal luminescence (AID 2044); format: functional, cell-based;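 further: intracellular parasites grown in NIH/3T3 mouse fibroblasts as host cells; luminescent beta-galactosidase reporter signal from transgenic T. cruzi replicating inside host cells; inhibitors lower the luminescence signal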
[16] = cells
[17] = target: Voltage-gated inwardly rectifying potassium channel KCNH2 (Homo sapiens, UniProt Q12809); experiment: hERG protection from proarrhythmic block, potency, dose response, cell-based, thallium flux (AID 2121); format: ADME
[18] = HEp-2 cell cytotoxicity, dose response, cytotoxicity control for RSV inhibitor project, HTS (AID 2410); format: functional; settings: human respiratory syncytial virus
[19] = cells; remark: listed apart in the source
[20] = test system: Vero; experiment: cells; format: functional, cell-based; settings: Chlorocebus sabaeus
[21] = test system: Streptococcus; experiment: Luminescence Microorganism-Based Dose Response Follow up to Identify Compounds Cytotoxic to Streptococcus. [Related pubchem assays: 1677 (Project Summary), 1915, 1914, 1902 (Retest at Dose), 1900 (Counter Screen), 1662 (Primary HTS)]; format: functional, organism-based
[22] = Luminescence Cell-Based Dose Confirmation HTS to Identify Activators of 5'UTR Stem-Loop Driven Alpha-Synuclein mRNA Translation in H4 Neuroglioblastoma Cells. [Related pubchem assays: 1829 (Project Summary), 1814 (Primary HTS)]; format: functional
[23] = test system: H4; experiment: Luminescence Cell-Based Dose Response HTS to Identify Activators of 5'UTR Stem-Loop Driven Prion Protein mRNA Translation in H4 Neuroglioblastoma Cells. [Related pubchem assays: 1829 (Project Summary), 1814 (Primary HTS)]; format: functional; settings: Homo sapiens
[24] = Luminescence Cell-Based Dose Response HTS to Identify Activators of Luciferase Translation or Activity in H4 […] Cells. [Related pubchem assays: 1829 (Project Summary), 1814 (Primary HTS)]; format: functional
[25] = Vero cell cytotoxicity, dose response, cytotoxicity control for Vif-APOBEC3G degradation inhibitor project, Vero cells (AID 1117358); format: functional; settings: Human immunodeficiency virus 1, Vero
[26] = target: Large T antigen (Simian virus 40, UniProt P03070); format: functional, Betapolyomavirus macacae;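 further: Confirmatory-stage PubChem screen for compounds that inhibit SV40 T antigen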
[27] = target: Protein Tat (Human immunodeficiency virus type 1 group M subtype B (isolate HXB2)(HIV-1), UniProt P04608); format: functional;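 further: tat binding to TAR RNA read out by fluorescence polarization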
[28] = Concentration-dependent survival of SW480 colon cancer line, luminescence detection with CellTiter-Glo, half-maximal inhibitory concentration (AID 1117338); format: functional
[29] = CellTiter-Glo luminescent dose response of DLD-1 viability loss (AID 1117352); format: functional
[30] = target: Glucose-6-phosphate 1-dehydrogenase (Homo sapiens, UniProt P11413); experiment: human G6PD enzyme inhibitors, dose response, selectivity assay for P. falciparum G6PD inhibitor project, biochemical, fluorescence (AID 504792); format: functional
[31] = target: T1, Endoribonuclease toxin MazF (Escherichia coli K-12, UniProt P0AE70); experiment: fluorescent RNA oligo signal without MazF, dose response, counter-screen for MazEF activator project, biochemical, fluorescence, single-stranded RNase substrate (AID 588502); format: functional
T1 sequence (P0AE70 whole entry): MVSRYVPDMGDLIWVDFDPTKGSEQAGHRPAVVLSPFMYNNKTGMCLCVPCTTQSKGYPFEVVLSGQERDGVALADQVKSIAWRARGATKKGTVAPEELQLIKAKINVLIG

[32] = target: T1, Endoribonuclease toxin MazF; experiment: MazF toxin RNase activators, dose response, biochemical, fluorescence, single-stranded RNA substrate, uHTS hits (AID 588481); format: functional
[33] = target: T2, Heat shock protein HSP 90-alpha (Homo sapiens, UniProt P07900); format: functional, organism-based
[34] = target: NS3 (Hepatitis C virus, UniProt A3EZJ3); experiment: PubChem AID 2173; set-up: species or system Hepacivirus hominis
[35] = target: T3, Caspase-6 (Homo sapiens, UniProt P55212); experiment: human caspase-6 inhibitors, dose response, biochemical, VEID-R110 fluorescence, cherry-pick (AID 720632)
T3 sequence (P55212 whole entry): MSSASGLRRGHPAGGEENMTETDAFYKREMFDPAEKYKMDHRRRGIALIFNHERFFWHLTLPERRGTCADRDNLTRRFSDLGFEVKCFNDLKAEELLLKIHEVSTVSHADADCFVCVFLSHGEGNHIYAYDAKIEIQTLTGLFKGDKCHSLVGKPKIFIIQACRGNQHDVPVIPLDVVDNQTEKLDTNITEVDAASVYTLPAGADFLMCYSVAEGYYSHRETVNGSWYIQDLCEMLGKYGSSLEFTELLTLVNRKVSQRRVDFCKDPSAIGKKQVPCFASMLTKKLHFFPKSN

[36] = target: T4, Heat shock factor protein 1 (Mus musculus, UniProt P38532); experiment: HSF1 potentiators in luciferase reporter cells, confirmation, cell-based, NIH3T3, luminescence, dose retest (AID 435004); format: functional;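 further: stress induced by proteasome inhibitor MG132 added 30 min after compound; luciferase reporter driven by HSF1 response element in NIH3T3 cells; actives raise luminescence as potentiators of the MG132 stress response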
T4 sequence (P38532 whole entry): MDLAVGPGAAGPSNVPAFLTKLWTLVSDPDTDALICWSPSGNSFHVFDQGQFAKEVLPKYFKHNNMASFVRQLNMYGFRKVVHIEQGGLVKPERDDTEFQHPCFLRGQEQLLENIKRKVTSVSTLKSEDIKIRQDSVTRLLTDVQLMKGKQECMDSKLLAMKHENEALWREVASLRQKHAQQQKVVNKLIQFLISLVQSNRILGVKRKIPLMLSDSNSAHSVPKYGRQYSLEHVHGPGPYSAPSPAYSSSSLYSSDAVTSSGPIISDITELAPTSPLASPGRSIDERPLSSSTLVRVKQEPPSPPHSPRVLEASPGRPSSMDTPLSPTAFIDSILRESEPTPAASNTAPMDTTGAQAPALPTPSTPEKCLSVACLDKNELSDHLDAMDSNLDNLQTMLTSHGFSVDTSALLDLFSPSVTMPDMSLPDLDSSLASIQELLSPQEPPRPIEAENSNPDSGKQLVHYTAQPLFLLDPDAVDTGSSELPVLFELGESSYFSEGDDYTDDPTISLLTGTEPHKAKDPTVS

[37] = HepG2 cell cytotoxicity, dose response, cytotoxicity control, plate reader, dry powder samples (AID 1159569); format: functional, cell-based;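 further: inhibitor potency with signal falling toward the positive control level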
[38] = P. falciparum Dd2 growth inhibitors, dose response, SYBR Green, cherry-picked samples (AID 1159567); format: functional, cell-based
[39] = HepG2 cell cytotoxicity, dose response, cytotoxicity control, cherry-picked samples (AID 1159577); format: functional, cell-based
[40] = P. falciparum Dd2 growth inhibitors, dose response, SYBR Green, dry powder samples (AID 1159566); format: functional, cell-based;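 further: potency for growth inhibition with lower SYBR green DNA signal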
[41] = P. falciparum ATP4 D1247Y mutant growth inhibitors, dose response, NITD609-resistant line, SYBR Green, dry powder (AID 1159571); format: functional, cell-based;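 further: parasites synchronized at ring stage by sorbitol before testing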
[42] = P. falciparum 3D7-ScDHODH growth inhibitors, dose response, SYBR Green, dry powder samples (AID 1159570); format: functional, cell-based;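 further: parasite growth measured after 72 hours of compound exposure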
[43] = target: T2, Heat shock protein HSP 90-alpha; experiment: Luminescence-based dose response biochemical high throughput screening assay for inhibitors of the Heat Shock Protein 90 (HSP90). [Related pubchem assays: 1831 (Summary AID.), 1846 (Confirmation screen.), 1789 (Primary screen.)]

Sequence of Cytochrome P450 2D6 (P10635 whole entry): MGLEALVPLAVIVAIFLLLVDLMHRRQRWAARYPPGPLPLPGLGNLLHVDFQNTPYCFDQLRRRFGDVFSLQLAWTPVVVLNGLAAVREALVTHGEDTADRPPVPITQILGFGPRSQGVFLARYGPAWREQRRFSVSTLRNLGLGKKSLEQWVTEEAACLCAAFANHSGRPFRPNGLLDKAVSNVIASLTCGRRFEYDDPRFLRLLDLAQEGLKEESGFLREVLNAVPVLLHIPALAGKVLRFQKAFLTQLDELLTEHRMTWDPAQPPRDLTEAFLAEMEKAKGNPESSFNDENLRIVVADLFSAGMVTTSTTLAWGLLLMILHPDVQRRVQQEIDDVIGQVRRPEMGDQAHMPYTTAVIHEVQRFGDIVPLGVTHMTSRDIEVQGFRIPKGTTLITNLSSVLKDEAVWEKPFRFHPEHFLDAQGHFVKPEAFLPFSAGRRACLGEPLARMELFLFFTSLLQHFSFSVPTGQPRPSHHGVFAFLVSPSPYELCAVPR
Sequence of Lysosomal acid glucosylceramidase (P04062 whole entry): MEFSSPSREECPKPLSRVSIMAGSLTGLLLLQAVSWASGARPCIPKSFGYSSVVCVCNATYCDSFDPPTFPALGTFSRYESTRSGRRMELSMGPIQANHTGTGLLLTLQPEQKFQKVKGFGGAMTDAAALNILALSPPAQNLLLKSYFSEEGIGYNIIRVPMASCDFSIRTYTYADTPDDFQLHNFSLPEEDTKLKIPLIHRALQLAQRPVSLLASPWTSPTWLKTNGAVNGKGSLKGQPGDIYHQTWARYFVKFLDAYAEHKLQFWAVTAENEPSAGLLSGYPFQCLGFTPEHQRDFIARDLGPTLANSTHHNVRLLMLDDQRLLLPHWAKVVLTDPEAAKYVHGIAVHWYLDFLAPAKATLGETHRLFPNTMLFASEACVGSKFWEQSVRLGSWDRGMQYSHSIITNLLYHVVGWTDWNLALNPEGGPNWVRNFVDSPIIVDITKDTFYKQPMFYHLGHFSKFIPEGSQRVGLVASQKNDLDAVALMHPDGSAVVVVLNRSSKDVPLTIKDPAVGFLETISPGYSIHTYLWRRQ
Sequence of Mitogen-activated protein kinase 10 (P53779 whole entry): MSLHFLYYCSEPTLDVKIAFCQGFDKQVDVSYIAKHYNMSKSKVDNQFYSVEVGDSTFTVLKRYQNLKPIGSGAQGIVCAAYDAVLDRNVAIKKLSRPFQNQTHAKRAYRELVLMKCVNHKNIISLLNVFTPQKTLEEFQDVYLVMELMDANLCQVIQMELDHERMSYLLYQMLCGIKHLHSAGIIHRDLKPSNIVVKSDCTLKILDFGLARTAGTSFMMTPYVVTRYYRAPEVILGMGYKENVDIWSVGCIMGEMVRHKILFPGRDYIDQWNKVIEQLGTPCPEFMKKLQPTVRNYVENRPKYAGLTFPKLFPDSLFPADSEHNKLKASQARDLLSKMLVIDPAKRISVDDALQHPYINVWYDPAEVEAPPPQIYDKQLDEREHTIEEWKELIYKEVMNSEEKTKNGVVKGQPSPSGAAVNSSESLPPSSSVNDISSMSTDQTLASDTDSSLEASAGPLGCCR
Sequence of Photoreceptor-specific nuclear receptor (Q9Y5X4 whole entry): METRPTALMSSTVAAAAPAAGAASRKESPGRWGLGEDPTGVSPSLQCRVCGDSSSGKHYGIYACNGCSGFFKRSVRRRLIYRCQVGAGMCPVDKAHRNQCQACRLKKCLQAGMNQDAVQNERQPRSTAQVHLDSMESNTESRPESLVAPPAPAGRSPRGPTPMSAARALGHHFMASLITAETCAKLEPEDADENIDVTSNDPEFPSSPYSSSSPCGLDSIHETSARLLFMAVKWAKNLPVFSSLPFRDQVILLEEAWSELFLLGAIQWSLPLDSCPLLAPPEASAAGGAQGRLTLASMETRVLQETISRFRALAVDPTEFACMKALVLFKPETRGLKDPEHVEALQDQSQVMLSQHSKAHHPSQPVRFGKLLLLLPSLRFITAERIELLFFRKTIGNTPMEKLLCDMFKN
Sequence of Peroxisome proliferator-activated receptor gamma/Nuclear receptor corepressor 2 (P37231 whole entry): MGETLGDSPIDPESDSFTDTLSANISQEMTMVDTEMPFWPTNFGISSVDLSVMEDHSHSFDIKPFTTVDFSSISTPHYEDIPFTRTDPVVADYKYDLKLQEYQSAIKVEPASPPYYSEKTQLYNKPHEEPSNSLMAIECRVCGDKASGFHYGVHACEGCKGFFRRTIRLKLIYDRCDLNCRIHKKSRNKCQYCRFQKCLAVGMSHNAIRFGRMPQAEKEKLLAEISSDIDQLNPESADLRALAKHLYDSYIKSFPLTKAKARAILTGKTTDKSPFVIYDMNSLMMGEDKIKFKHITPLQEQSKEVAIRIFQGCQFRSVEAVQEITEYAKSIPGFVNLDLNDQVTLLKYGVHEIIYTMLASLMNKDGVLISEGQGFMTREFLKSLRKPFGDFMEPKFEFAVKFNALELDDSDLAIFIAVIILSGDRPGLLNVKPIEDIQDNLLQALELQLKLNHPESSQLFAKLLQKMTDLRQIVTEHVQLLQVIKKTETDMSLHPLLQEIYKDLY
Sequence of Peroxisome proliferator-activated receptor gamma/Nuclear receptor corepressor 2 (Q9Y618 whole entry): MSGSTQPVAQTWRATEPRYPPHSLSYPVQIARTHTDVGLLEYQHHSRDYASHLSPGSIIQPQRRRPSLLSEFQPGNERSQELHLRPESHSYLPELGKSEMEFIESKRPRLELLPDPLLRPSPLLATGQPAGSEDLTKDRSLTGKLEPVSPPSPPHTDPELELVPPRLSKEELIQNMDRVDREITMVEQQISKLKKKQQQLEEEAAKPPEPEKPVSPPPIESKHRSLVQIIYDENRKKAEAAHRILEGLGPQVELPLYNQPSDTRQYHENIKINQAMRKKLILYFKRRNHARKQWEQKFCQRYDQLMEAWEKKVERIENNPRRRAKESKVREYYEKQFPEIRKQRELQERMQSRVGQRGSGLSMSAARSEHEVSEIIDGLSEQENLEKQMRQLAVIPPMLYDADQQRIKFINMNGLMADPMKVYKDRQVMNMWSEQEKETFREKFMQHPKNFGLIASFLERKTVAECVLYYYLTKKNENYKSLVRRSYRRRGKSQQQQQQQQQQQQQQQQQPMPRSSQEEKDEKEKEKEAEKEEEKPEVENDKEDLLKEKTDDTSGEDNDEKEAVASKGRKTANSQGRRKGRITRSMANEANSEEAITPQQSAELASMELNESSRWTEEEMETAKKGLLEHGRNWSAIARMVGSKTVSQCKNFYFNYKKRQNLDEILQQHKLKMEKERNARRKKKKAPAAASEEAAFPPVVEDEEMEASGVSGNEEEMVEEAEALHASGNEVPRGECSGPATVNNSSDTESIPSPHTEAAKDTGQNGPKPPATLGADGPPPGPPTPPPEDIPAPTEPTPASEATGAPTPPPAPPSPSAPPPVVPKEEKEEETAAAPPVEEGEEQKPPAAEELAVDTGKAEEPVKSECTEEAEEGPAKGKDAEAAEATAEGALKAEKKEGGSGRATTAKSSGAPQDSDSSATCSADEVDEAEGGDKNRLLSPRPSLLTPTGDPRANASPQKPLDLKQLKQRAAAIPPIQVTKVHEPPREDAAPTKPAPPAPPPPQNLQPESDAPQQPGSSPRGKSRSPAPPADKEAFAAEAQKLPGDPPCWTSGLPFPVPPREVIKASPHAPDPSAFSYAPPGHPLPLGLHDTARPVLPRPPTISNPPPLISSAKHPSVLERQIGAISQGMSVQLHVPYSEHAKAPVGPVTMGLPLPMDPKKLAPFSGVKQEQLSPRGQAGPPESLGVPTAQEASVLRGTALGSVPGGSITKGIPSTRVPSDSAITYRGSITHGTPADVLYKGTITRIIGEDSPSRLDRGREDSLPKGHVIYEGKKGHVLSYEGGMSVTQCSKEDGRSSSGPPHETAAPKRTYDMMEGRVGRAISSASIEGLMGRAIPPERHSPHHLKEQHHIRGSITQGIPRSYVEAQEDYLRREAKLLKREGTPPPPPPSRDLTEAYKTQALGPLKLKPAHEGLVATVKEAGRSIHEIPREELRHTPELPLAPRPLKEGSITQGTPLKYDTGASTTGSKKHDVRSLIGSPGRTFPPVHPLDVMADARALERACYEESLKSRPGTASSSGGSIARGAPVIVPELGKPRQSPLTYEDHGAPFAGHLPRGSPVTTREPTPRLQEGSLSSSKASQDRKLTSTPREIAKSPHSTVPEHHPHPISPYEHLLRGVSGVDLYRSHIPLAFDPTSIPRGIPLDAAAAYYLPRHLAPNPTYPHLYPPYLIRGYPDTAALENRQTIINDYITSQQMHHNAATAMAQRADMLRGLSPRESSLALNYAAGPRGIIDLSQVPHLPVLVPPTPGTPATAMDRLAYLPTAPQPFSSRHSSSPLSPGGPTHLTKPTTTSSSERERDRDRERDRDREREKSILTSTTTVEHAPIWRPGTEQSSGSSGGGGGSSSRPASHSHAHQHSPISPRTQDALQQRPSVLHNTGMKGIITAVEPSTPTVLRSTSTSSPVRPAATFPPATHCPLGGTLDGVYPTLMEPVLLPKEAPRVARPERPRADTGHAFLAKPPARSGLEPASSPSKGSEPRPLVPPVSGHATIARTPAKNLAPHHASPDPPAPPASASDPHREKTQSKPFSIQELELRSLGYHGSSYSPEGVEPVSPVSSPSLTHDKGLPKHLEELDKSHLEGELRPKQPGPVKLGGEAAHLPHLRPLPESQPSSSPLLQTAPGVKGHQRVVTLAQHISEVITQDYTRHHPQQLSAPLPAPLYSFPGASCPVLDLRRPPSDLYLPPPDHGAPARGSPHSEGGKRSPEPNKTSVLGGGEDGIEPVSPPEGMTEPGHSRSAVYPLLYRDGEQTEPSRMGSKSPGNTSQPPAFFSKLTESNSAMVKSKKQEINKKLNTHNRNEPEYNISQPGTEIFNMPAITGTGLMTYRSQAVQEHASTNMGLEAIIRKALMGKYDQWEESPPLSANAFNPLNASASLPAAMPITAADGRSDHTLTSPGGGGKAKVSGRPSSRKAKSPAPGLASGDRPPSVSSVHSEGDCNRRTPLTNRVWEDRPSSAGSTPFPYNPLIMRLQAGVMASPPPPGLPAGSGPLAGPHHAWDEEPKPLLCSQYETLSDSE
Sequence of Protein Tat (P04608 whole entry): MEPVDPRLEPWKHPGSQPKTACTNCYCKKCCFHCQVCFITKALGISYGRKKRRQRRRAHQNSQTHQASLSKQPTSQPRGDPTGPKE

Structure (SMILES): Cc1ccc2c(C)nc(NC3=NCN(Cc4ccccc4)CN3)nc2c1
- IC50 [1]: > 93.1 µM (not active)

Structure (SMILES): COc1ccc2cc3cc(C(=O)NCc4cccs4)oc3nc2c1
- IC50 [2]: 10.7 µM (not active)
- IC50 [3]: 12.9 µM (not active)

Structure (SMILES): COc1cccc2c1C(=O)c1c(O)c3c(c(O)c1C2=O)C[C@@](O)(C(=O)CO)C[C@@H]3O[C@H]1C[C@H](N)[C@H](O[C@@H]2CCCCO2)[C@H](C)O1 [PIRARUBICIN]
- IC50 [4]: 2.01 µM (active)
- IC50 [5]: 0.0806 µM (active)
- IC50 [6]: 1.28 µM (active)
- IC50 [7]: 0.0795 µM (active)
- IC50 [8]: 1.01 µM (active)
- IC50 [9]: 0.911 µM (active)
- IC50 [10]: > 20 µM (inactive)

Structure (SMILES): CCCCN(CC)S(=O)(=O)c1ccc(C(=O)Nc2nnc(CSC)o2)cc1
- CC50 [11]: 13.9 µM (active)
- EC50 [12]: > 10 µM (not active)
- AC50 [13]: 35.5 µM (inconclusive)

Structure (SMILES): Cc1cccc2sc(NC(=O)CN(C)S(=O)(=O)c3cccs3)nc12
- EC50 [12]: > 10 µM (not active)

Structure (SMILES): CCOC(=O)C1CCCN(Cc2ccc(OCc3ccccc3)c(OC)c2)C1 (centres undefined)
- EC50 [14]: > 60 µM (not active)
- EC50 [15]: < 0.1 µM (active)
- EC50 [16]: 0.01 µM (active)

Structure (SMILES): Cc1ccc(C(=O)CC(=O)COc2ccc(Cl)cc2C)cc1
- EC50 [17]: 0.82 µM (active)

Structure (SMILES): Cc1nn(Cc2c(Cl)cccc2Cl)c(C)c1NC(=O)c1cc(C(C)C)on1
- CC50 [18]: 16.8 µM (active)
- IC50 [19]: 11.3 µM (active)
- IC50 [20]: 10.5 µM (active)

Structure (SMILES): CN(C)c1ccc(C(=O)n2c3ccccc3c3ccccc32)cc1
- EC50 [21]: > 500 µM (not active)

Structure (SMILES): c1ccc(CNc2ncnc3c2cnn3-c2ccccc2)cc1
- EC50 [22]: > 120 µM (not active)
- EC50 [23]: > 120 µM (not active)
- IC50 [1]: 75.8 µM (not active)
- EC50 [24]: 3.43 µM (active)

Structure (SMILES): CCN(C(=O)CN1CCN(c2ccc(O)cc2)CC1)c1c(N)n(Cc2ccccc2)c(=O)[nH]c1=O
- CC50 [25]: > 40 µM (active)
- IC50 [26]: 7.74 µM (active)
- IC50 [27]: 68.5 µM (inconclusive)

Structure (SMILES): CCC(C)N1C(=O)S/C(=C/c2ccc(Sc3nc4ccccc4[nH]3)o2)C1=O (centres undefined)
- CC50 [25]: 28.7 µM (active)
- AC50 [13]: 3.98 µM (inconclusive)

Structure (SMILES): Nc1nnnn1/N=C/c1ccc(O)cc1
- IC50 [19]: 2.58 µM (active)

Structure (SMILES): CC(C)(C)[C@H]1CC[C@H](CC2=C(O)C(=O)c3ccccc3C2=O)CC1 [BUPARVAQUONE]
- IC50 [4]: 0.255 µM (active)
- IC50 [5]: > 10 µM (inactive)
- IC50 [7]: > 10 µM (inactive)
- IC50 [28]: 0.205 µM (active)
- IC50 [8]: 0.133 µM (active)
- IC50 [9]: 0.227 µM (active)
- IC50 [29]: 0.218 µM (active)
- IC50 [10]: 3.39 µM (active)

Structure (SMILES): CC1=CN2C(=N)/C(=C/c3ccc([N+](=O)[O-])o3)C(=O)N=C2S1
- IC50 [30]: > 80 µM (inactive)
- EC50 [31]: 23.8 µM (inactive)
- EC50 [32]: > 99 µM (inactive)
- AC50 [33]: 2.57 µM (active)
- IC50 [34]: 9.08 µM (active)
- AC50 [35]: 5.85 µM (active)
- EC50 [36]: 30.1 µM (inconclusive)

Structure (SMILES): OC[C@@H]1Nc2ccc(-c3cccc(F)c3)cc2[C@@H]2[C@H]1CCN2Cc1ccncc1
- AC50 [37]: 29.5 µM (active)
- AC50 [38]: 1.27 µM (active)
- AC50 [39]: 27.6 µM (active)
- AC50 [40]: 0.638 µM (active)
- AC50 [41]: 0.814 µM (active)
- AC50 [42]: 2.02 µM (active)

Structure (SMILES): O=S(=O)(Cc1ccccc1)N(O)c1ccccc1
- IC50 [43]: 0.913 µM (active)
